Data reported in patent US10253027B2, “Aryl lactam kinase inhibitors” (Bristol-Myers Squibb Company, priority 2013, dated 2019).

These compounds were tested against T1, GST-Xa-hAAK1 (Homo sapiens, UniProt Q2M2I8) (assay: AAK1 Kinase Assay). Conditions: IC50 (nM), ATP 22 μM; 3 hours at room temperature; Caliper LabChip 3000.
T1 construct: made in house
Format: biochemical
Method: The assays were performed in U-bottom 384-well plates. […] The reactions were initiated by the combination of bacterially expressed, GST-Xa-hAAK1 with substrates and test compounds. The reactions were incubated at room temperature for 3 hours and terminated by adding 60 μl of 35 mM EDTA buffer to each sample. The reactions were analyzed on the Caliper LabChip 3000 (Caliper, Hopkinton, Mass.) by electrophoretic separation of the fluorescent substrate and phosphorylated product. […] Compounds were dissolved at 10 mM in dimethylsulfoxide (DMSO) and evaluated at eleven concentrations. IC50 values were derived by non-linear regression analysis.

T1 sequence (Q2M2I8 whole entry): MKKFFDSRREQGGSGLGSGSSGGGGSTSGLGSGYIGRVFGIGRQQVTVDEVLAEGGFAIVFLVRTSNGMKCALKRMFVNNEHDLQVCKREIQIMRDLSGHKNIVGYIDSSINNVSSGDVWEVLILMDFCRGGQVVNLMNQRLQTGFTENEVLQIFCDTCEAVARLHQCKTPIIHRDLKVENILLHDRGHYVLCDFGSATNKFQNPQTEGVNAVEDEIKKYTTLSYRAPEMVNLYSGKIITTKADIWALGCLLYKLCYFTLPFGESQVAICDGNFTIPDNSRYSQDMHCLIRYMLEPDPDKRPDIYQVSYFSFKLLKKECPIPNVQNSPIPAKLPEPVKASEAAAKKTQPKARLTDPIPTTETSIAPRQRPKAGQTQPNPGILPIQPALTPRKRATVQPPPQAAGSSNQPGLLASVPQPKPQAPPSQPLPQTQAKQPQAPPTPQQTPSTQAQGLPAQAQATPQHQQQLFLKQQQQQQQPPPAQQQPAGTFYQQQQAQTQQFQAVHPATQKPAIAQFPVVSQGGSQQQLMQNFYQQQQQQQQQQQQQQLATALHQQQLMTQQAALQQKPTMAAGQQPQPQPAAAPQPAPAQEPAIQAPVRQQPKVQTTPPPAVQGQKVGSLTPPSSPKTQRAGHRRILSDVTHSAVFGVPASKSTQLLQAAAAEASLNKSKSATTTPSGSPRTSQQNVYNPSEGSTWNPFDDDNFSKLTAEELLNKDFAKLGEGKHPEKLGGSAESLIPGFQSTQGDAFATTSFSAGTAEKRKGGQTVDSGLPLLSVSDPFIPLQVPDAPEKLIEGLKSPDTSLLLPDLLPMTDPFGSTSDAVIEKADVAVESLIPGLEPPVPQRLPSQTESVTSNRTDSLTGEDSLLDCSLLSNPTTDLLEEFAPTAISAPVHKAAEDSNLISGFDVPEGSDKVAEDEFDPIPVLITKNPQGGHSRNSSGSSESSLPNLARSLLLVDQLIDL

SMILES	IC50
COc1cc(NC(=O)[C@H](N)CC(C)C)ccc1-c1cn[nH]c1 [Example 24, (R)-2-Amino-N-(3-methoxy-4-(1H-pyrazol-4-yl)phenyl)-4-methylpentanamide]	19 nM
COc1cc(NC(=O)[C@H](N)CC(C)C)ccc1-n1ccnc1 [Example 25, (R)—N-(4-(1H-Imidazol-1-yl)-3-methoxyphenyl)-2-amino-4-methylpentanamide]	3250 nM
COc1cc(NC(=O)[C@H](N)CC(C)C)ccc1-n1cncn1 [Example 26, (R)-2-Amino-N-(3-methoxy-4-(1H-1,2,4-triazol-1-yl)phenyl)-4-methylpentanamide]	955 nM
COc1c(-c2cnco2)ccc(NC(=O)[C@H](N)CC(C)C)c1Cl [Example 28, (R)-2-Amino-N-(2-chloro-3-methoxy-4-(oxazol-5-yl)phenyl)-4-methylpentanamide]	709 nM
COc1c(-c2cnco2)cc(Cl)c(NC(=O)[C@H](N)CC(C)C)c1Cl [Example 29, (R)-2-Amino-N-(2,6-dichloro-3-methoxy-4-(oxazol-5-yl)phenyl)-4-methylpentanamide]	344 nM
COc1cc(NC(=O)C(CC(C)C)N[C@H]2CC[C@H](N)CC2)ccc1-c1cnco1 (stereo partly drawn) [Example 31, 2-(trans-4-Aminocyclohexylamino)-N-(3-methoxy-4-(oxazol-5-yl)phenyl)-4-methylpentanamide]	7320 nM
CC(C)C[C@@H](N)C(=O)Nc1ccc(-c2cn[nH]c2)c(OC(F)F)c1 [Example 41, 2-Amino-N-(3-(difluoromethoxy)-4-(1H-pyrazol-4-yl)phenyl)-4-methylpentanamide]	45 nM
COc1cc(NC(=O)[C@H](N)CC(C)C)ccc1-c1ccnc(Cl)c1 [Example 43, (R)-2-Amino-N-(4-(2-chloropyridin-4-yl)-3-methoxyphenyl)-4-methylpentanamide]	260 nM
COc1cnccc1-c1ccc(NC(=O)[C@H](N)CC(C)C)cc1 [Example 44, (R)-2-Amino-N-(4-(3-methoxypyridin-4-yl)phenyl)-4-methylpentanamide]	140 nM
COc1cc(NC(=O)C(N)CC(C)C)ccc1-c1ccnc(N)c1 (stereo not drawn) [Example 45, 2-Amino-N-(4-(2-aminopyridin-4-yl)-3-methoxyphenyl)-4-methylpentanamide]	150 nM
COc1cc(NC(=O)[C@H](N)CC(C)C)ccc1-c1cnc2cccnn12 [Example 46, (R)-2-amino-N-(4-(imidazo[1,2-b]pyridazin-3-yl)-3-methoxyphenyl)-4-methylpentanamide]	2200 nM
COc1cc(NC(=O)[C@H](N)CC(C)C)ccc1-c1cnc2ccc(Cl)nn12 [Example 47, (R)-2-Amino-N-(4-(6-chloroimidazo[1,2-b]pyridazin-3-yl)-3-methoxyphenyl)-4-methylpentanamide]	440 nM
CNc1cc(-c2ccc(NC(=O)C(N)CC(C)C)cc2OC)ccn1 (stereo not drawn) [Example 48, 2-Amino-N-(3-methoxy-4-(2-(methylamino)pyridin-4-yl)phenyl)-4-methylpentanamide]	450 nM
CNc1ccc2ncc(-c3ccc(NC(=O)[C@H](N)CC(C)C)cc3OC)n2n1 [Example 49, (R)-2-Amino-N-(3-(methoxy)-4-(6-(methylamino)imidazo[1,2-b]pyridazin-3-yl)phenyl)-4-methylpentanamide]	90 nM
COc1cc(NC(=O)[C@@H](CC(C)C)NCc2ccc(Cl)cc2)ccc1-c1cnco1 [Example 60, (R)-2-((4-Chlorobenzyl)amino)-N-(3-methoxy-4-(oxazol-5-yl)phenyl)-4-methylpentanamide]	210 nM
COc1cc(NC(=O)[C@@H](CC(C)C)NCc2ccccc2O)ccc1-c1cnco1 [Example 62]	220 nM
COc1cc(NC(=O)[C@@H](CC(C)C)NCc2ccc(C)cc2)ccc1-c1cnco1 [Example 63, (R)—N-(3-Methoxy-4-(oxazol-5-yl)phenyl)-4-methyl-2-((4-methylbenzyl)amino)pentanamide]	540 nM

More lines, now with the values ahead:

IC50	SMILES
54 nM	COc1cc(NC(=O)[C@H](N)CC(C)C)c(Cl)cc1-c1cnco1 [Example 27, (R)-2-Amino-N-(2-chloro-5-methoxy-4-(oxazol-5-yl)phenyl)-4-methylpentanamide]
590 nM	COc1cc(NC(=O)C(CC(C)C)N2CCC(N)C2)ccc1-c1cnco1 (stereo not drawn) [Example 30, 2-(3-Aminopyrrolidin-1-yl)-N-(3-methoxy-4-(oxazol-5-yl)phenyl)-4-methylpentanamide]
1140 nM	COc1cc(NC(=O)C(CC(C)C)NC2CNC2)ccc1-c1cnco1 (stereo not drawn) [Example 32, 2-(Azetidin-3-ylamino)-N-(3-methoxy-4-(oxazol-5-yl)phenyl)-4-methylpentanamide]
2100 nM	COc1cc(NC(=O)C(CC(C)C)N2CCC(N)CC2)ccc1-c1cnco1 (stereo not drawn) [Example 33, 2-(4-Aminopiperidin-1-yl)-N-(3-methoxy-4-(oxazol-5-yl)phenyl)-4-methylpentanamide]
202 nM	COc1cc(NC(=O)[C@H](O)CC(C)C)ccc1-c1cnco1 [Example 34, (R)-2-Hydroxy-N-(3-methoxy-4-(oxazol-5-yl)phenyl)-4-methylpentanamide]
83 nM	COc1cc(NC(=O)C(CN)CC(C)C)ccc1-c1cnco1 (stereo not drawn) [Example 35, 2-(Aminomethyl)-N-(3-methoxy-4-(oxazol-5-yl)phenyl)-4-methylpentanamide]
460 nM	CC(C)C[C@@H](N)C(=O)Nc1ccc(-c2cnco2)c(F)c1 [Example 40, (R)-2-Amino-N-(3-fluoro-4-(oxazol-5-yl)phenyl)-4-methylpentanamide]
860 nM	CC(C)C[C@@H](N)C(=O)Nc1ccc(-c2cnco2)c(N(C)C)c1 [Example 42, 2-Amino-N-(3-(dimethylamino)-4-(oxazol-5-yl)phenyl)-4-methylpentanamide]
340 nM	CC[C@@H](N)C(=O)Nc1ccc(-c2cnco2)c(OC)c1 [Example 50, (R)-2-Amino-N-(3-methoxy-4-(oxazol-5-yl)phenyl)butanamide]
590 nM	CCC[C@H](N)C(=O)Nc1ccc(-c2cnco2)c(OC)c1 [Example 51, (S)-2-Amino-N-(3-methoxy-4-(oxazol-5-yl)phenyl)pentanamide]
530 nM	CCCC[C@@H](N)C(=O)Nc1ccc(-c2cnco2)c(OC)c1 [Example 52, (R)-2-Amino-N-(3-methoxy-4-(oxazol-5-yl)phenyl)hexanamide]
270 nM	CCCC[C@H](N)C(=O)Nc1ccc(-c2cnco2)c(OC)c1 [Example 53, (S)-2-Amino-N-(3-methoxy-4-(oxazol-5-yl)phenyl)hexanamide]
720 nM	COc1cc(NC(=O)[C@H](N)CCSC)ccc1-c1cnco1 [Example 54, (R)-2-Amino-N-(3-methoxy-4-(oxazol-5-yl)phenyl)-4-(methylthio)butanamide]
130 nM	CC[C@@H](C)[C@@H](N)C(=O)Nc1ccc(-c2cnco2)c(OC)c1 [Example 55, (2R,3R)-2-Amino-N-(3-methoxy-4-(oxazol-5-yl)phenyl)-3-methylpentanamide]
950 nM	COc1cc(NC(=O)[C@H](N)CC2CCCCC2)ccc1-c1cnco1 [Example 56, (R)-2-Amino-3-cyclohexyl-N-(3-methoxy-4-(oxazol-5-yl)phenyl)propanamide]
780 nM	COc1cc(NC(=O)C2CNC(=O)N2)ccc1-c1cnco1 (stereo not drawn) [Example 57, N-(3-Methoxy-4-(oxazol-5-yl)phenyl)-2-oxoimidazolidine-4-carboxamide]
4400 nM	CNC1(C(=O)Nc2ccc(-c3cnco3)c(OC)c2)CC1 [Example 58, N-(3-Methoxy-4-(oxazol-5-yl)phenyl)-1-(methylamino)cyclopropanecarboxamide]
2400 nM	COc1cc(NC(=O)CN2CCCC2=O)ccc1-c1cnco1 [Example 59, N-(3-Methoxy-4-(oxazol-5-yl)phenyl)-2-(2-oxopyrrolidin-1-yl)acetamide]
72 nM	COc1cc(NC(=O)[C@@H](CC(C)C)NCc2cccn2C)ccc1-c1cnco1 [Example 61, (R)—N-(3-Methoxy-4-(oxazol-5-yl)phenyl)-4-methyl-2-(((1-methyl-1H-pyrrol-2-yl)methyl)amino)pentanamide]
150 nM	COc1cc(NC(=O)[C@@H](CC(C)C)NCc2cnn(C)c2)ccc1-c1cnco1 [Example 64, (R)—N-(3-Methoxy-4-(oxazol-5-yl)phenyl)-4-methyl-2-(((1-methyl-1H-pyrazol-4-yl)methyl)amino)pentanamide]
370 nM	COc1cc(NC(=O)[C@@H](CC(C)C)NCc2ccsc2)ccc1-c1cnco1 [Example 65, (R)—N-(3-Methoxy-4-(oxazol-5-yl)phenyl)-4-methyl-2-((thiophen-3-ylmethyl)amino)pentanamide]
110 nM	COc1cc(NC(=O)[C@@H](CC(C)C)NCc2sccc2C)ccc1-c1cnco1 [Example 66, (R)—N-(3-Methoxy-4-(oxazol-5-yl)phenyl)-4-methyl-2-(((3-methylthiophen-2-yl)methyl)amino)pentanamide]
260 nM	COc1cc(NC(=O)[C@@H](CC(C)C)NCc2csnn2)ccc1-c1cnco1 [Example 67, (R)-2-(((1,2,3-Thiadiazol-4-yl)methyl)amino)-N-(3-methoxy-4-(oxazol-5-yl)phenyl)-4-methylpentanamide]
67 nM	COc1cc(NC(=O)[C@@H](CC(C)C)NS(C)(=O)=O)ccc1-c1cnco1 [Example 68, (R)—N-(3-Methoxy-4-(oxazol-5-yl)phenyl)-4-methyl-2-(methylsulfonamido)pentanamide]
280 nM	CCS(=O)(=O)N[C@H](CC(C)C)C(=O)Nc1ccc(-c2cnco2)c(OC)c1 [Example 69, (R)-2-(Ethylsulfonamido)-N-(3-methoxy-4-(oxazol-5-yl)phenyl)-4-methylpentanamide]
